The results in this text go back to ChEMBL document CHEMBL1122087, “Computer graphics in drug design: molecular modeling of thyroid hormone-prealbumin interactions” (J Med Chem, 1982).

The target of the first assay is Transthyretin (Homo sapiens) (UniProt P02766). Description: Ability to displace L-[125I]thyoxine from the high affinity prealbumin binding site was expressed as ratio of its apparent association constant to that of L-thyroxine.
For the molecule `NC(Cc1cc(I)c(Oc2cccc3ccc(O)cc23)c(I)c1)C(=O)O` (configuration not stated), the Ka(T4) is 0.7%.

The target is the same in another assay. Nature of the assay: Ability to displace L-[125I]thyoxine from the high affinity prealbumin binding site was expressed as ratio of its apparent association constant to that of DL-thyroxine.
For `NC(Cc1cc(I)c(Oc2ccc(O)cc2)c(I)c1)C(=O)O` (configuration not stated), the Ka(T4) came to 0.3%.

For the molecule `NC(Cc1cc(I)c(Oc2cc(Br)c(O)c3ccccc23)c(I)c1)C(=O)O` (configuration not stated), the Ka(T4) was determined as 28.7%.

In the case of `NC(Cc1cc(I)c(Oc2ccc(O)c3ccccc23)c(I)c1)C(=O)O` (configuration not stated), the Ka(T4) was 1.6%.

Turning to `NC(Cc1cc(I)c(Oc2ccc(O)c(Br)c2)c(I)c1)C(=O)O` (configuration not stated), the Ka(T4) is 1.6%.

On to `NC(Cc1cc(I)c(Oc2cc(Br)c(O)c(Br)c2)c(I)c1)C(=O)O` (configuration not stated), for which the Ka(T4) is 8.6%.

Consider `NC(Cc1cc(I)c(Oc2cccc3c(O)cccc23)c(I)c1)C(=O)O` (configuration not stated), for which the Ka(T4) is 6.3%.
